Data published in ChEMBL document CHEMBL1201862, “PubChem BioAssay data set” (2004).
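Cultured in 96-well plates, cells were exposed to test compound for 48 hours across five concentrations. Here, GI50 denotes the concentration required for 50% inhibition of growth.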 The source made the active and inactive calls. No stated cut-off is given here; in the data, active = GI50 up to about 1.1 µM and inactive = higher.

Key:
Test in all cases: NCI anticancer screen, dose series, 48 h
786-0 = system: 786-0
A498 = system: A498
A549 = system: A549
ACHN = system: ACHN
CAKI-1 = system: CAKI-1
CCRF-CEM = system: CCRF-CEM
COLO 205 = system: COLO 205
DLD-1 = system: DLD-1
DMS-114 = system: DMS-114
DMS-273 = system: DMS-273
EKVX = system: EKVX
HCC 2998 = system: HCC 2998
HCT-116 = system: HCT-116
HCT-15 = system: HCT-15
HOP-18 = system: HOP-18
HOP-62 = system: HOP-62
HOP-92 = system: HOP-92
HT-29 = system: HT-29
IGROV-1 = system: IGROV-1
K562 = system: K562
KM-20L2 = system: KM-20L2
KM12 = system: KM12
LOX IMVI = system: LOX IMVI
LXFL 529 = system: LXFL 529
M14 = system: M14
MOLT-4 = system: MOLT-4
Malme-3M = system: Malme-3M
NCI-H226 = system: NCI-H226
NCI-H23 = system: NCI-H23
NCI-H460 = system: NCI-H460
NCI-H522 = system: NCI-H522
OVCAR-3 = system: OVCAR-3
OVCAR-4 = system: OVCAR-4
OVCAR-5 = system: OVCAR-5
OVCAR-8 = system: OVCAR-8
RPMI-8226 = system: RPMI-8226
RXF 393 = system: RXF 393
RXF 631 = system: RXF 631
SF-268 = system: SF-268
SF-295 = system: SF-295
SK-MEL-28 = system: SK-MEL-28
SK-MEL-2 = system: SK-MEL-2
SK-MEL-5 = system: SK-MEL-5
SK-OV-3 = system: SK-OV-3
SN12C = system: SN12C
SNB-19 = system: SNB-19
SNB-75 = system: SNB-75
SNB-78 = system: SNB-78
SR = system: SR
SW-620 = system: SW-620
TK-10 = system: TK-10
U-251 = system: U-251
UACC-257 = system: UACC-257
UACC-62 = system: UACC-62
UO-31 = system: UO-31
HL-60 = system: HL-60
M19-MEL = system: M19-MEL
SF-539 = system: SF-539
BT-549 = system: BT-549
DU-145 = system: DU-145
Hs-578T = system: Hs-578T
MDA-MB-231 = system: MDA-MB-231
MDA-MB-435 = system: MDA-MB-435
MDA-N = system: MDA-N
PC-3 = system: PC-3
T47D = system: T47D
XF498 = system: XF498

SMILES: CCCCCCCCCCCCCCCCCC(=O)OCC(CN(C)CCN(C)C)OC(=O)CCCCCCCCCCCCCCCCC (stereo not given)
- GI50 (786-0): > 100 µM (inactive)
- GI50 (A498): > 100 µM (inactive)
- GI50 (A549): 55.3 µM (inactive)
- GI50 (ACHN): 91.6 µM (inactive)
- GI50 (CAKI-1): > 100 µM (inactive)
- GI50 (CCRF-CEM): 42.9 µM (inactive)
- GI50 (COLO 205): > 100 µM (inactive)
- GI50 (DLD-1): 89.7 µM (inactive)
- GI50 (DMS-114): 46.1 µM (inactive)
- GI50 (DMS-273): > 100 µM (inactive)
- GI50 (EKVX): > 100 µM (inactive)
- GI50 (HCC 2998): 75.9 µM (inactive)
- GI50 (HCT-116): 55.2 µM (inactive)
- GI50 (HCT-15): > 100 µM
- GI50 (HOP-18): 20.6 µM (inactive)
- GI50 (HOP-62): > 100 µM (inactive)
- GI50 (HOP-92): > 100 µM (inactive)
- GI50 (HT-29): 40.2 µM (inactive)
- GI50 (IGROV-1): > 100 µM (inactive)
- GI50 (K562): 15.8 µM (inactive)
- GI50 (KM-20L2): > 100 µM (inactive)
- GI50 (KM12): 88.5 µM (inactive)
- GI50 (LOX IMVI): > 100 µM (inactive)
- GI50 (LXFL 529): 72.4 µM (inactive)
- GI50 (M14): > 100 µM (inactive)
- GI50 (MOLT-4): 27.1 µM (inactive)
- GI50 (Malme-3M): > 100 µM (inactive)
- GI50 (NCI-H226): > 100 µM (inactive)
- GI50 (NCI-H23): > 100 µM (inactive)
- GI50 (NCI-H460): > 100 µM (inactive)
- GI50 (NCI-H522): > 100 µM (inactive)
- GI50 (OVCAR-3): > 100 µM (inactive)
- GI50 (OVCAR-4): > 100 µM (inactive)
- GI50 (OVCAR-5): > 100 µM (inactive)
- GI50 (OVCAR-8): 72.6 µM (inactive)
- GI50 (RPMI-8226): > 100 µM (inactive)
- GI50 (RXF 393): > 100 µM (inactive)
- GI50 (RXF 631): 55.5 µM (inactive)
- GI50 (SF-268): 45.3 µM (inactive)
- GI50 (SF-295): 63.4 µM (inactive)
- GI50 (SK-MEL-28): > 100 µM (inactive)
- GI50 (SK-MEL-2): > 100 µM (inactive)
- GI50 (SK-MEL-5): > 100 µM (inactive)
- GI50 (SK-OV-3): > 100 µM (inactive)
- GI50 (SN12C): > 100 µM (inactive)
- GI50 (SNB-19): > 100 µM (inactive)
- GI50 (SNB-75): 98.2 µM (inactive)
- GI50 (SNB-78): > 100 µM (inactive)
- GI50 (SR): 35.9 µM (inactive)
- GI50 (SW-620): > 100 µM (inactive)
- GI50 (TK-10): > 100 µM (inactive)
- GI50 (U-251): > 100 µM (inactive)
- GI50 (UACC-257): > 100 µM (inactive)
- GI50 (UACC-62): > 100 µM (inactive)
- GI50 (UO-31): > 100 µM (inactive)

SMILES: CCOc1ccccc1NC(=O)C(=O)c1c(O)c2ccc(O)cc2oc1=O
- GI50 (786-0): > 100 µM (inactive)
- GI50 (A498): > 100 µM (inactive)
- GI50 (A549): > 100 µM (inactive)
- GI50 (ACHN): > 100 µM (inactive)
- GI50 (CAKI-1): > 100 µM (inactive)
- GI50 (CCRF-CEM): > 100 µM (inactive)
- GI50 (COLO 205): > 100 µM (inactive)
- GI50 (DLD-1): > 100 µM (inactive)
- GI50 (DMS-273): > 100 µM (inactive)
- GI50 (EKVX): > 100 µM (inactive)
- GI50 (HCC 2998): > 100 µM (inactive)
- GI50 (HCT-116): > 100 µM (inactive)
- GI50 (HCT-15): > 100 µM
- GI50 (HL-60): > 100 µM (inactive)
- GI50 (HOP-18): > 100 µM (inactive)
- GI50 (HOP-62): > 100 µM (inactive)
- GI50 (HT-29): > 100 µM (inactive)
- GI50 (IGROV-1): > 100 µM (inactive)
- GI50 (K562): > 100 µM (inactive)
- GI50 (KM-20L2): > 100 µM (inactive)
- GI50 (KM12): > 100 µM (inactive)
- GI50 (LOX IMVI): > 100 µM (inactive)
- GI50 (LXFL 529): > 100 µM (inactive)
- GI50 (M14): > 100 µM (inactive)
- GI50 (M19-MEL): > 100 µM (inactive)
- GI50 (MOLT-4): > 100 µM (inactive)
- GI50 (Malme-3M): > 100 µM (inactive)
- GI50 (NCI-H226): > 100 µM (inactive)
- GI50 (NCI-H23): > 100 µM (inactive)
- GI50 (NCI-H460): > 100 µM (inactive)
- GI50 (NCI-H522): > 100 µM (inactive)
- GI50 (OVCAR-3): > 100 µM (inactive)
- GI50 (OVCAR-4): > 100 µM (inactive)
- GI50 (OVCAR-5): > 100 µM (inactive)
- GI50 (OVCAR-8): > 100 µM (inactive)
- GI50 (RXF 393): > 100 µM (inactive)
- GI50 (RXF 631): > 100 µM (inactive)
- GI50 (SF-268): > 100 µM (inactive)
- GI50 (SF-295): > 100 µM (inactive)
- GI50 (SF-539): > 100 µM (inactive)
- GI50 (SK-MEL-28): > 100 µM (inactive)
- GI50 (SK-MEL-2): > 100 µM (inactive)
- GI50 (SK-MEL-5): > 100 µM (inactive)
- GI50 (SK-OV-3): > 100 µM (inactive)
- GI50 (SN12C): > 100 µM (inactive)
- GI50 (SNB-19): > 100 µM (inactive)
- GI50 (SNB-75): > 100 µM (inactive)
- GI50 (SNB-78): > 100 µM (inactive)
- GI50 (SR): > 100 µM (inactive)
- GI50 (SW-620): > 100 µM (inactive)
- GI50 (TK-10): > 100 µM (inactive)
- GI50 (U-251): > 100 µM (inactive)
- GI50 (UACC-257): > 100 µM (inactive)
- GI50 (UACC-62): > 100 µM (inactive)
- GI50 (UO-31): > 100 µM (inactive)

SMILES: CCCCC(=O)OCC(=O)[C@]1(O)Cc2c(O)c3c(c(O)c2[C@@H](OC2CC(NC(=O)C(F)(F)F)C(O)C(C)O2)C1)C(=O)c1c(OC)cccc1C3=O (stereo not given in full)
- GI50 (786-0): 0.232 µM (active)
- GI50 (A498): 0.247 µM (active)
- GI50 (A549): 0.194 µM (active)
- GI50 (ACHN): 0.406 µM (active)
- GI50 (BT-549): 2.11 µM (inactive)
- GI50 (CAKI-1): 0.203 µM (active)
- GI50 (CCRF-CEM): 0.135 µM (active)
- GI50 (COLO 205): 1.11 µM (active)
- GI50 (DLD-1): 0.538 µM (active)
- GI50 (DMS-114): 0.268 µM (active)
- GI50 (DMS-273): 0.138 µM (active)
- GI50 (DU-145): 0.365 µM (active)
- GI50 (EKVX): 2.43 µM (inactive)
- GI50 (HCC 2998): 1.3 µM (inactive)
- GI50 (HCT-116): 0.294 µM (active)
- GI50 (HCT-15): 1.39 µM
- GI50 (HL-60): 0.126 µM (active)
- GI50 (HOP-62): 0.183 µM (active)
- GI50 (HOP-92): 0.376 µM (active)
- GI50 (HT-29): 0.74 µM (active)
- GI50 (Hs-578T): 1.73 µM (inactive)
- GI50 (IGROV-1): 0.794 µM (active)
- GI50 (K562): 0.337 µM (active)
- GI50 (KM-20L2): 2.19 µM (inactive)
- GI50 (KM12): 0.787 µM (active)
- GI50 (LOX IMVI): 0.163 µM (active)
- GI50 (LXFL 529): 0.743 µM (active)
- GI50 (M14): 0.832 µM (active)
- GI50 (M19-MEL): 0.331 µM (active)
- GI50 (MDA-MB-231): 3 µM (inactive)
- GI50 (MDA-MB-435): 2.07 µM (inactive)
- GI50 (MDA-N): 1.15 µM (inactive)
- GI50 (MOLT-4): 0.0228 µM (active)
- GI50 (Malme-3M): 0.711 µM (active)
- GI50 (NCI-H226): 0.0401 µM (active)
- GI50 (NCI-H23): 0.351 µM (active)
- GI50 (NCI-H460): 0.0214 µM (active)
- GI50 (NCI-H522): 0.736 µM (active)
- GI50 (OVCAR-3): 2.96 µM (inactive)
- GI50 (OVCAR-4): 2.08 µM (inactive)
- GI50 (OVCAR-5): 1.52 µM (inactive)
- GI50 (OVCAR-8): 0.519 µM (active)
- GI50 (PC-3): 1.14 µM (inactive)
- GI50 (RPMI-8226): 0.181 µM (active)
- GI50 (RXF 393): 0.82 µM (active)
- GI50 (RXF 631): 0.682 µM (active)
- GI50 (SF-268): 0.403 µM (active)
- GI50 (SF-295): 0.308 µM (active)
- GI50 (SF-539): 0.387 µM (active)
- GI50 (SK-MEL-28): 1.73 µM (inactive)
- GI50 (SK-MEL-2): 0.962 µM (active)
- GI50 (SK-MEL-5): 0.327 µM (active)
- GI50 (SK-OV-3): 0.345 µM (active)
- GI50 (SN12C): 0.29 µM (active)
- GI50 (SNB-19): 0.348 µM (active)
- GI50 (SNB-75): 1.02 µM (active)
- GI50 (SR): 0.0304 µM (active)
- GI50 (SW-620): 0.261 µM (active)
- GI50 (T47D): 0.54 µM (active)
- GI50 (TK-10): 2.47 µM (inactive)
- GI50 (U-251): 0.221 µM (active)
- GI50 (UACC-257): 1.3 µM (inactive)
- GI50 (UACC-62): 0.184 µM (active)
- GI50 (UO-31): 1.06 µM (active)
- GI50 (XF498): 0.161 µM (active)
